Among the data in PMC6888128, “Biosynthesis of Phenylamide Phytoalexins in Pathogen-Infected Barley” (International Journal of Molecular Sciences, 2019) are Km values, retold here.

Test [1] has as its system T1, HvTHT8.
T1 construct: His-GST-tagged (pCold GST), E. coli BL21, TALON-purified; differs from HvTHT7 only at residue 166 (His/Arg)
The test can be described thus: LC-MS/MS (MRM) of amide product. The note with it: 100 mM Tris-HCl pH 8.0, 35 °C, read-out: HvTHT8 / K m. It is filed as biochemical, Hordeum vulgare. An excerpt:
LC-MS/MS (MRM) of amide product on HvTHT8

Test [2] concerns T2, HvTHT7.
T2 construct: His-GST-tagged (pCold GST), E. coli BL21, TALON-purified; HvTHT7 plasmid made by site-directed mutagenesis of HvTHT8; differs from HvTHT8 only at residue 166 (His/Arg)
Briefly: LC-MS/MS (MRM) of amide product. The conditions noted are these: 100 mM Tris-HCl pH 8.0, 35 °C, read-out: HvTHT7 / K m. It is filed as biochemical, Hordeum vulgare. An excerpt: LC-MS/MS (MRM) of amide product on HvTHT7

Setting [3] is: acyl acceptor, 200 µM cinnamoyl-CoA.

Read-outs that look alike come from different tables or passages of the source.

`NCC(=O)c1c[nH]c2ccccc12` [8-Oxotryptamine]: the Km in test [1] (setting [3]) is 54.9 µM; in test [2] (setting [3]) it was 53.1 µM.

As for `NCCc1c[nH]c2ccccc12` [Tryptamine], the Km is 60.6 µM in test [1] (setting [3]) and 59.2 µM in test [2] (setting [3]).

With `CC(C)(COP(=O)(O)OP(=O)(O)OC[C@H]1O[C@@H](n2cnc3c(N)ncnc32)[C@H](O)[C@@H]1OP(=O)(O)O)[C@@H](O)C(=O)NCCC(=O)NCCSC(=O)/C=C/c1ccc(O)cc1` [Coumaroyl-CoA], the Km amounted to 35.5 µM in test [1] (acyl donor, 1 mM tryptamine) and 39.2 µM in test [2] (acyl donor, 1 mM tryptamine).

Regarding `CC(C)(COP(=O)(O)OP(=O)(O)OC[C@H]1O[C@@H](n2cnc3c(N)ncnc32)[C@H](O)[C@@H]1OP(=O)(O)O)[C@@H](O)C(=O)NCCC(=O)NCCSC(=O)/C=C/c1ccccc1` [Cinnamoyl-CoA], the Km in test [1] (acyl donor, 1 mM tryptamine) is 62.1 µM; in test [2] (acyl donor, 1 mM tryptamine), 64.2 µM.

Consider `COc1cc(/C=C/C(=O)SCCNC(=O)CCNC(=O)[C@H](O)C(C)(C)COP(=O)(O)OP(=O)(O)OC[C@H]2O[C@@H](n3cnc4c(N)ncnc43)[C@H](O)[C@@H]2OP(=O)(O)O)ccc1O` [Feruloyl-CoA], for which the Km in test [1] (acyl donor, 1 mM tryptamine) amounted to 36.7 µM; in test [2] (acyl donor, 1 mM tryptamine) it was 32.6 µM.

As to `NCc1c[nH]c2ccccc12` [IMA, (1H-indol-3-yl)methylamine], the Km worked out at 33.9 µM in test [1] (setting [3]) and 54.2 µM in test [2] (setting [3]).

Take `NCCc1c[nH]c2ccc(O)cc12` [Serotonin]: the Km in test [1] (setting [3]) was 347 µM; in test [2] (setting [3]) it was 385 µM.
